Calls of active or inactive are those of the source. No cut-off for these calls is given here.
Key:
K562 [1] = experiment: Induction of apoptosis in human K562 cells assessed as late apoptotic cells after 24 hrs by Annexin V-APC/PI double staining based flow cytometric analysis (reference value: 2.6%); format: functional
K562 [2] = experiment: Induction of apoptosis in human K562 cells assessed as viable cells after 3 hrs by Annexin V-[…]/PI double staining based flow cytometric analysis (reference value: 91%); format: functional
DNA = experiment: Binding affinity to pBR322 DNA (unknown origin) at 20 uM after 30 mins by electrophoretic mobility shift assay; format: nucleic-acid assay
[3] = Drug localization in mitochondria of mouse NIH3T3 cells at 1 uM measured after 60 mins by MitoTracker red based confocal microscopic method; format: ADME; details: nih3t3, 1 h
K562 [4] = experiment: Cytotoxicity in human K562 cells assessed as reduction in cell viability at 0.5 uM incubated for 72 hrs by propidium iodide staining based flow cytometric analysis; format: functional
K562 [5] = experiment: Cytotoxicity in human K562 cells assessed as reduction in cell viability at 2.5 uM incubated for 72 hrs by propidium iodide staining based flow cytometric analysis; format: functional
K562 [6] = experiment: Cytotoxicity in human K562 cells assessed as reduction in cell viability at 2.5 uM incubated with compound for 30 mins followed by cell washing and measured after 72 hrs by propidium iodide staining based flow cytometric analysis; format: functional; details: 0.5 h
K562 [7] = experiment: Cytotoxicity in human K562 cells assessed as reduction in cell viability at 1 uM incubated with compound for 60 mins followed by cell washing and measured after 72 hrs by propidium iodide staining based flow cytometric analysis; format: functional
K562 [8] = experiment: Induction of apoptosis in human K562 cells assessed as activation of casapse-9 cleavage at 2.5 uM measured after 6 hrs by Western blot analysis; format: functional, cell-based
K562 [9] = experiment: Induction of apoptosis in human K562 cells assessed as viable cells after 24 hrs by Annexin V-APC/PI double staining based flow cytometric analysis (reference value: 91%); format: functional
K562 [10] = experiment: Cytotoxicity in human K562 cells assessed as reduction in cell viability at 2.5 uM incubated with compound for 60 mins followed by cell washing and measured after72 hrs by propidium iodide staining based flow cytometric analysis; format: functional; details: 1 h
Calf thymus DNA = experiment: Binding affinity to calf thymus double strand DNA incubated for 5 mins by spectrophotometry; format: nucleic-acid assay; details: Bos taurus
[11] = Drug localization in mitochondria of mouse NIH3T3 cells at 1 uM measured after 5 mins by MitoTracker red based confocal microscopic method; format: ADME; details: nih3t3, 5 min
NCI-H460 = experiment: Cytotoxicity in human NCI-H460 cells assessed as reduction in cell viability incubated for 72 hrs by MTT assay; format: functional, cell-based; details: NCI-H460, 72 h
[12] = Resistance index, ratio of IC50 for cytotoxicity against human K562/4 cells to IC50 for cytotoxicity against human K562 cells; format: functional
HeLa = experiment: Cytotoxicity in human HeLa cells assessed as reduction in cell viability incubated for 72 hrs by MTT assay; format: functional, cell-based
K562 [13] = experiment: Induction of cell cycle arrest in human K562 cells assessed as increase in accumulation at sub-G1 phase at 2.5 uM after 6 hrs by flow cytometric analysis (reference value: 22.1%); format: functional
K562 [14] = experiment: Induction of cell cycle arrest in human K562 cells assessed as increase in accumulation at sub-G1 phase at 2.5 uM after 24 hrs by propidium iodide staining based flow cytometric analysis (reference value: 8.4%); format: functional
K562 [15] = experiment: Cytotoxicity in human K562 cells assessed as reduction in cell viability at 1 uM incubated with compound for 120 mins followed by cell washing and measured after 72 hrs by propidium iodide staining based flow cytometric analysis; format: functional; details: 2 h
K562 [16] = experiment: Induction of cell cycle arrest in human K562 cells assessed as increase in accumulation at sub-G1 phase at 0.5 uM after 48 hrs by propidium iodide staining based flow cytometric analysis (reference value: 8.4%); format: functional
K562 [17] = experiment: Induction of mitochondrial membrane potential loss in human K562 cells at 7.5 uM after 6 hrs by Mitotracker Red dye based flow cytometric analysis; format: functional, cell-based
K562 [18] = experiment: Induction of cell cycle arrest in human K562 cells assessed as increase in accumulation at S phase at 2.5 uM after 2 hrs by flow cytometric analysis (reference value: 23.1%); format: functional
[19] = Resistance index, ratio of IC50 for cytotoxicity against p53 knock out human HCT-116 cells to IC50 for cytotoxicity against human HCT-116 cells; format: functional
K562 [20] = experiment: Induction of cell cycle arrest in human K562 cells assessed as increase in accumulation at S phase at 2.5 uM after 4 hrs by flow cytometric analysis (reference value: 47.1%); format: functional
K562 [21] = experiment: Cytotoxicity in human K562 cells assessed as reduction in cell viability incubated for 72 hrs by MTT assay; format: functional, cell-based; details: K562, 72 h
Fibroblast = experiment: Cytotoxicity in human Fibroblast cells assessed as reduction in cell viability incubated for 72 hrs by MTT assay; format: functional, cell-based
K562 [22] = experiment: Induction of apoptosis in human K562 cells assessed as early apoptotic cells after 3 hrs by Annexin V-APC/PI double staining based flow cytometric analysis (reference value: 0.1%); format: functional
HL-60 = experiment: Cytotoxicity in human HL-60 cells assessed as reduction in cell viability incubated for 72 hrs by MTT assay; format: functional, cell-based; details: HL-60, 72 h
HCT-116 = experiment: Cytotoxicity in human HCT-116 cells assessed as reduction in cell viability incubated for 72 hrs by MTT assay; format: functional, cell-based; details: HCT-116, 72 h
[23] = Cytotoxicity in human K562/4 cells assessed as reduction in cell viability incubated for 72 hrs by MTT assay; format: functional, cell-based; details: K562/4, 72 h
K562 [24] = experiment: Induction of apoptosis in human K562 cells assessed as necrotic cells after 3 hrs by Annexin V-APC/PI double staining based flow cytometric analysis (reference value: 6.3%); format: functional
K562 [25] = experiment: Induction of cell cycle arrest in human K562 cells assessed as increase in accumulation at sub-G1 phase at 2.5 uM after 2 hrs by flow cytometric analysis (reference value: 15.2%); format: functional
[26] = Drug localization in lysosome of mouse NIH3T3 cells at 1 uM incubated for 60 mins by lyso-tracker red based confocal microscopic method; format: ADME, cell-based; details: nih3t3, 1 h
K562 [27] = experiment: Induction of cell cycle arrest in human K562 cells assessed as increase in accumulation at G2/M phase at 2.5 uM by flow cytometric analysis (reference value: 11.8%); format: functional
[28] = Drug localization in cytoplasm of mouse NIH3T3 cells at 1 uM incubated for 5 to 60 mins by laser confocal microscopy; format: ADME, cell-based; details: nih3t3, 1 µM, time 5-60 min
K562 [29] = experiment: Induction of apoptosis in human K562 cells assessed as early apoptotic cells after 24 hrs by Annexin V-APC/PI double staining based flow cytometric analysis (reference value: 0.1%); format: functional
K562 [30] = experiment: Induction of apoptosis in human K562 cells assessed as activation of casapse-3 cleavage at 2.5 uM measured after 6 hrs by Western blot analysis; format: functional, cell-based
CAPAN-1 = experiment: Cytotoxicity in human CAPAN-1 cells assessed as reduction in cell viability incubated for 72 hrs by MTT assay; format: functional, cell-based; details: CAPAN-1, 72 h
K562 [31] = experiment: Induction of cell cycle arrest in human K562 cells assessed as increase in accumulation at G0/G1 phase at 2.5 uM after 2 hrs by flow cytometric analysis (reference value: 46.5%); format: functional

Structure (SMILES): N[C@H]1CCN(C(=O)c2cc3c(O)c4c(c(O)c3s2)C(=O)c2ccccc2C4=O)C1
- Activity (K562 [1]): 49.3%
- Activity (K562 [2]): 47.9%
- Activity (DNA): inactive
- Drug uptake [3]: Active
- Activity (K562 [4]): 77.6%
- Activity (K562 [5]): 94.8%
- Activity (K562 [6]): 67.4%
- Activity (K562 [7]): 6.3%
- Activity (K562 [8]): Active
- Activity (K562 [9]): 1.8%
- Activity (K562 [10]): 63.4%
- Activity (Calf thymus DNA): inactive
- Drug uptake [11]: Not Active
- IC50 (NCI-H460): 0.4 µM
- Ratio [12]: 1.3
- IC50 (HeLa): 0.4 µM
- Activity (K562 [13]): 24.6%
- Activity (K562 [14]): 76.7%
- Activity (K562 [15]): 56.4%
- Activity (K562 [16]): 33.2%
- Activity (K562 [17]): inactive
- Activity (K562 [18]): 27.8%
- Ratio [19]: 1
- Activity (K562 [20]): 40.1%
- IC50 (K562 [21]): 0.3 µM
- IC50 (Fibroblast): 1.4 µM
- Activity (K562 [22]): 0.6%
- IC50 (HL-60): 0.3 µM
- IC50 (HCT-116): 0.5 µM
- IC50 [23]: 0.4 µM
- Activity (K562 [24]): 38.2%
- Activity (K562 [25]): 15.9%
- Drug uptake [26]: Active
- Activity (K562 [27]): 14%
- Drug uptake [28]: Active
- Activity (K562 [29]): 0.1%
- Activity (K562 [30]): Active
- IC50 (CAPAN-1): 0.7 µM
- Activity (K562 [31]): 40.4%
